Holding throughout (assay type): cell-based
Assay [1] relates to K. pneumoniae. In words: AATCC Test Method 147, treated cotton samples (Examples 2 and 4). The note with it: Example 2; agent at 900 ppm; cotton laundered 50 times. As for the experimental part: (§1) The efficacy of Emulsion A in cotton sample material was tested, alone and in combination with other agents. The AATCC Test Method 147, which is a known bacterial test method for textiles, was followed. The sample size of the cotton was a 25 mm×75 mm rectangle. The growth medium was Nutrient Agar. Prior to treatment, the cotton was steam sterilized at 121° C. The samples were incubated at 37° C.±2° C. for 18 to 24 hours. The samples were each laundered 50 times prior to doing the micro testing unless indicated to the contrary. NZ means that no zone of inhibition surrounded the sample. NI means that there was no inhibition of growth under the sample (if observable). The zone of inhibition was reported in millimeters.
(§2) The efficacy of Emulsion A in cotton sample material was tested, alone and in combination with other agents. The AATCC Test Method 147, which is a known test method, was followed. The sample size of the cotton was 25 mm×75 mm rectangle. The growth medium was Nutrient Agar. Prior to treatment, the cotton was steam sterilized at 121° C. The samples were incubated at 37° C.±2° C. for 18 to 24 hours. The samples were each laundered 50 times unless indicated to the contrary. NZ means that no zone of inhibition surrounded the sample. NI means there was no inhibition of growth under the sample (if observable). The zone of inhibition was reported in millimeters.

The test system of assay [2] is S. aureus 6538. Described as above. The note with it: Example 2; agent at 900 ppm; cotton laundered 50 times. The method, then:
as §1, §2

Assay [3] deals with K. pneumoniae. Briefly: Kirby Bauer Test Method, treated cotton samples (Example 3). The note with it: agent at 800 ppm with R10800 at 0.67% and USV at 0.33%, cotton laundered 50 times. The method, then:
(§3) The efficacy of Emulsion A in cotton sample material was tested, alone and in combination with other agents. The Kirby Bauer Test Method, which is a known bacterial test method, was followed. The sample size of the cotton was 38.1 mm×38.1 mm (1.5 inches×1.5 inches) square. The growth medium was Mueller-Hinton Agar. Prior to treatment, the cotton was steam sterilized at 121° C. The samples were pre-wet with sterile deionized water. The samples were incubated at 37° C.±2° C. for 18 to 24 hours. The samples were each laundered 50 times unless indicated to the contrary. NZ means that no zone of inhibition surrounded the sample. NI means that there was no inhibition of growth under the sample (if observable). The zone of inhibition was reported in millimeters.
(§4) Note that the percentages of R10800 and USV represent target loading levels on the cotton samples.

Assay [4] has as its system S. aureus 6538. The assay is described as above. The note with it: agent at 800 ppm with R10800 at 0.67% and USV at 0.33%, cotton laundered 50 times. The method, then:
as §3, §4

With “Zinc pyrithione [Zinc pyrithione (FPS dispersion)]”, the “Size of Zone” value is 0 mm in the assay on K. pneumoniae [1], 2 mm in the assay on S. aureus 6538 [2], 0 mm with K. pneumoniae [3] and 0 mm in the assay on S. aureus 6538 [4]. The results for the “Zone Results” value in the assay on K. pneumoniae [1], with K. pneumoniae [3] and in the assay on S. aureus 6538 [4] were “NZ/NI”, “NZ/NI” and “NZ/I”, respectively.

`O=C(Nc1ccc(Cl)cc1)Nc1ccc(Cl)c(Cl)c1` [Triclocarban]: in the assay with K. pneumoniae [3], the “Size of Zone” value stood at 0 mm and the “Zone Results” value is “NZ/NI”. Besides, in the assay with S. aureus 6538 [4], the “Size of Zone” value amounted to 0 mm and the “Zone Results” value is “NZ/NI”.

Take `Oc1ccccc1-c1ccccc1` [Ortho-phenyl phenol]: in the assay on K. pneumoniae [3], the “Size of Zone” value worked out at 0 mm and the “Zone Results” value is given as “NZ/NI”. In the assay on S. aureus 6538 [4], the “Size of Zone” value was 0 mm and the “Zone Results” value is recorded as “NZ/NI”.

These data come from patent US20050182140A1, “Antimicrobial compositions” (Microban Products Company, priority 2003, published 2005).
